Results published in article PMC8793334, “Validation of a System xc^– Functional Assay in Cultured Astrocytes and Nervous Tissue Samples” (Frontiers in Cellular Neuroscience, 2022).

How the values were obtained:
Assay type in all cases: cell-based
[1] = biological target: T1, xCT (system xc–, cystine-glutamate exchanger) (Rattus norvegicus, UniProt A0A8I6AB70); assay: inhibition of [3H]-L-glutamate uptake in Na+-free buffer, CHO-xCT cells, concentration-response
T1 construct: gene Slc7a11; with 4F2hc (Slc3a2)

[2] = biological target: T1, xCT (system xc–, cystine-glutamate exchanger); assay: radiolabeled substrate uptake in Na+-free buffer, transfected versus non-transfected CHO cells
[3] = biological target: T2, xCT (system xc–, cystine-glutamate exchanger) (Mus musculus, UniProt Q9WTR6); assay: radiolabeled substrate uptake in Na+-free buffer, knockout control
T2 construct: gene Slc7a11; native exchanger in cultured astrocytes and spinal cord crude synaptosomes, wild-type versus xCT–/–; with 4F2hc (Slc3a2)
T2 sequence (Q9WTR6 1-502): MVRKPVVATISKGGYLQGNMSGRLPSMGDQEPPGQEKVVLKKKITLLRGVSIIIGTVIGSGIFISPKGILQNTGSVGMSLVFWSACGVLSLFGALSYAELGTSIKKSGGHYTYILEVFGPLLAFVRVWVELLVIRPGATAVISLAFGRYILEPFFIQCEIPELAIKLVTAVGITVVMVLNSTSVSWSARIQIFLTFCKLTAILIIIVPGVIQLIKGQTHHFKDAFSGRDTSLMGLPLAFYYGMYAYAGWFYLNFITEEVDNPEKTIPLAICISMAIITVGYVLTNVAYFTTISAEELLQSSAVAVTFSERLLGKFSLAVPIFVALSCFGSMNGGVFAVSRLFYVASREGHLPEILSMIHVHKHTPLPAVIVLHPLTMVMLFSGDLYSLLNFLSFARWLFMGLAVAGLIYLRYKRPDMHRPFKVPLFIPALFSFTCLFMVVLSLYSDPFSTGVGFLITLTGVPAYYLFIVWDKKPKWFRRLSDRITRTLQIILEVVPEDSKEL
T2 sequence (P10852 1-526 partner): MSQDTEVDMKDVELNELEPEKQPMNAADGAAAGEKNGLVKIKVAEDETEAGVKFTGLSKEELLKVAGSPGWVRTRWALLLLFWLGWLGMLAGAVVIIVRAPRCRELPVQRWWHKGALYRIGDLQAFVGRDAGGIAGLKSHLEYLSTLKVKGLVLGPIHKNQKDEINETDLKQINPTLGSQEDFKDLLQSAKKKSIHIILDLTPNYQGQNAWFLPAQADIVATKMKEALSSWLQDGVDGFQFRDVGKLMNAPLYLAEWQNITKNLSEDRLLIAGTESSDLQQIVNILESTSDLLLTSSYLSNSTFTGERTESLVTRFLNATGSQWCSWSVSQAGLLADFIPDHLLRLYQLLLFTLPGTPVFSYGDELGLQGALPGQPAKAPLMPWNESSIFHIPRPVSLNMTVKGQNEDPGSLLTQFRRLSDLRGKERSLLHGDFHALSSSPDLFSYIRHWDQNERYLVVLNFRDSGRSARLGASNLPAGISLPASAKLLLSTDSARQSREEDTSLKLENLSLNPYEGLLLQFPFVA

T1 sequence (A0A8I6AB70 1-502): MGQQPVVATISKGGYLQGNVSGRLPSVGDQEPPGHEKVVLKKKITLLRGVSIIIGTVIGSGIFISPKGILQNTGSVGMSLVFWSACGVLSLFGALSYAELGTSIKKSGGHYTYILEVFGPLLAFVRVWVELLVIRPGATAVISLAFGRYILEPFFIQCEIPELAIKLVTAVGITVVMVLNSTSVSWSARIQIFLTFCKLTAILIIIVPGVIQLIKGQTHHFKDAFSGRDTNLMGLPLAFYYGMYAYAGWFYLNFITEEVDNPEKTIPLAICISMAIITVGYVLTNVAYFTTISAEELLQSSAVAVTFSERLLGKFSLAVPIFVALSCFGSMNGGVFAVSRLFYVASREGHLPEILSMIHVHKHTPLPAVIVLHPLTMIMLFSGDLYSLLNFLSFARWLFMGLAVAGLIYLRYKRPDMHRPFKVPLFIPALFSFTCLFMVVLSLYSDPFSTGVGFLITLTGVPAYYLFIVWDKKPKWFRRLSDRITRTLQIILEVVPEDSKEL

| IC50 [1] [µM] | Structure (SMILES) | radiolabeled substrate uptake in Na+-free buffer, transfected versus non-transfe [2] | radiolabeled substrate uptake in Na+-free buffer, knockout control [3] |
| --- | --- | --- | --- |
| 5.75 | N[C@@H](CCS(=O)(=O)O)C(=O)O [HCA] |  |  |
|  | N[C@@H](CCC(=O)O)C(=O)O [L-glutamate] | [^3H]-L-glutamate uptake measured in the transfected cells was significantly higher as compared to non-transfected cells | the uptake of [^3H]-L-glutamate was barely detectable in astrocytes derived from the transgenic mice lacking xCT |
